In patent US20260240826A1, “COMPOSITIONS FOR PD-L1 INHIBITION AND METHODS OF USE THEREOF” (ARIZONA BOARD OF REGENTS ON BEHALF OF THE UNIVERSITY OF …, priority 2023, published 2026):

Tested on: SKH-1 mouse skin
Test: NanoString nCounter gene expression analysis (Mouse Inflammation V2 panel) of SKH-1 mouse skin
Assay type: in vivo
Description: UVB exposure was performed on AP-1 luciferase reporter mice on the SKH-1 genetic background at a dose of 2.75 kJ/m2 using FS40 bulbs (Q-Lab Corporation) as described before with the modification that mice were imaged 24 hr post UVB exposure using whole body bioluminescence instead of 48 hr post UVB using ear punches. SSL irradiation of SKH-1 mice (Charles River Laboratories, strain code 477) at a dose of 90 kJ/m2 UVA/6 kJ/m2 UVB was performed using UVA-340 bulbs (Q-Lab Corporation) as described before.
SKH-1 mouse skin [full thickness, 3 biological samples (i.e., 3 mice per treatment group)] treated either with vehicle (acetone) or 8 mM BMS-202 (all 3 times: 24 hr pre, 1 hr pre, and immediately post) and harvested 24 hr after acute SSL. First, total mRNA was prepared using the RNeasy Mini kit (Qiagen). Next, 100 ng was used for NanoString® nCounter® analysis (using the ‘Mouse Inflammation V2’ panel; probing 254 genes, NanoString® Technologies) comparing gene expression between treatment groups. Total mRNA was hybridized with the ‘Mouse Inflammation V2’ code set at 65° C. overnight. Further purification and binding of the hybridized probes to the optical cartridge was performed on the nCounter® Prep Station, and finally, the cartridge was scanned on the nCounter® Digital Analyzer. RCC files were then imported into nSolver4.0 software (NanoString® Technologies) and checked for data quality using default QC settings; all samples passed data quality QC. All samples were normalized using the geometric mean of the housekeeper genes. Expression ratios were calculated by dividing the mean values of all samples in one experimental group (UV+BMS-202) by the mean values of all samples in the reference group (UV+vehicle control). For data analysis, low count threshold value was 200. For heatmap depiction (FIGS. 3A and 3B, FIG. 5 and FIG. 6), a z-score for a specific gene indicates the number of SDs away from the mean of expression in the reference samples. For ‘pathway score analysis’ (FIGS. 4A, 4B, and 4C), each sample's gene expression profile was then condensed into a small set of pathway scores using nCounter® Advanced Analysis software (version 2.0.115). Pathway scores were fit using the first principal component of each gene set's data, oriented such that each pathway score has positive weights for at least half its genes.
Individual samples were run in triplicate format of biological replicates, and data analysis was performed using the nSolver analysis software (4.0). For p-value adjustment (Benjamini-Yekutieli False Discovery Rate; p-value threshold: 0.05), nCounter® Advanced Analysis software (version 2.0.115) was used. Nonparametric data analysis of murine experimentation was performed using the Mann-Whitney test. Differences between groups were considered significant at *p<0.05.

[1] = 8 mM topical + SSL vs SSL control, SKH-1 skin, 24 hr
[2] = 8 mM topical + SSL vs vehicle + SSL

COc1nc(OCc2cccc(-c3ccccc3)c2C)ccc1CNCCNC(C)=O [BMS-202]
Bcl6 fold change [1]: −12.8 fold
C1qa fold change [1]: −4.5 fold
C3 fold change [1]: −9.0 fold
C4a fold change [1]: −5.9 fold
C8b fold change [1]: 26.2 fold
C9 fold change [1]: 18.6 fold
Ccl2 fold change [1]: −5.3 fold
Ccl2 fold downregulation [1]: 5.3 fold
Ccl7 fold change [1]: −8.1 fold
Ccl7 fold downregulation [1]: 8.1 fold
Ccl8 fold change [1]: −5.0 fold
Ccl8 fold downregulation [1]: 5.0 fold
Ccr3 fold change [1]: 20.5 fold
Cdc42 fold change [1]: −4.6 fold
Cebpb fold change [1]: −8.3 fold
Cfl1 fold change [1]: −10.8 fold
Chi3l3 fold change [1]: 10.5 fold
Crp fold change [1]: 23.9 fold
Cxcl1 fold change [1]: −4.1 fold
Cxcl1 fold downregulation [1]: 4.1 fold
Cxcl3 fold change [1]: −9.1 fold
Cxcl5 fold change [1]: −11.6 fold
Cxcl5 fold downregulation [1]: 11.6 fold
Cxcl10 fold change [1]: 4.3 fold
Cysltr2 fold change [1]: 14.4 fold
Defa-rs1 fold change [1]: 51.0 fold
Fos fold change [1]: −4.1 fold
Fos fold downregulation [1]: 4.1 fold
Fxyd2 fold change [1]: −17.0 fold
Gnas fold change [1]: −11.5 fold
Gnas fold downregulation [1]: 11.5 fold
Gnb1 fold change [1]: −5.8 fold
Gnb1 fold downregulation [1]: 5.8 fold
Grb2 fold change [1]: −4.5 fold
H2-Eb1 fold change [1]: −14.2 fold
Hif1a fold change [1]: −9.6 fold
Hif1a fold downregulation [1]: 9.6 fold
II1r1 fold downregulation [1]: 5.5 fold
Ifi44 fold change [1]: 5.2 fold
Ifna1 fold change [1]: 89.3 fold
Ifnb1 fold change [1]: 16.4 fold
Ifng fold change [1]: 10.6 fold
Il1b fold downregulation [1]: 2.9 fold
Il1r1 fold change [1]: −5.5 fold
Il1rap fold downregulation [1]: 3.6 fold
Il6ra fold downregulation [1]: 3.4 fold
Il9 fold change [1]: 28.9 fold
Il10rb fold downregulation [1]: 3.2 fold
Il18 fold change [1]: −20.0 fold
Il18 fold downregulation [1]: 20.0 fold
Il21 fold change [1]: 50.1 fold
Il23a fold change [1]: 6.5 fold
Irf1 fold change [1]: −4.1 fold
Itgb2 fold change [1]: −8.2 fold
Jun fold change [1]: −5.9 fold
Jun fold downregulation [1]: 5.9 fold
Kng1 fold change [1]: 14.9 fold
Ly96 (coreceptor of Tlr4) fold downregulation [1]: 11.0 fold
Ly96 fold change [1]: −11.0 fold
Map2k1 fold change [1]: −5.8 fold
Map2k1 fold downregulation [1]: 5.8 fold
Map2k4 fold change [1]: −6.4 fold
Map2k4 fold downregulation [1]: 6.4 fold
Map3k1 fold change [1]: −4.5 fold
Map3k1 fold downregulation [1]: 4.5 fold
Map3k5 fold change [1]: −6.4 fold
Map3k5 fold downregulation [1]: 6.4 fold
Map3k7 fold downregulation [1]: 3.7 fold
Mapk1 fold downregulation [1]: 3.7 fold
Mapk3 fold change [1]: −6.3 fold
Mapk3 fold downregulation [1]: 6.3 fold
Mapk8 fold downregulation [1]: 3.1 fold
Mapk14 fold change [1]: −5.9 fold
Mapk14 fold downregulation [1]: 5.9 fold
Mapkapk2 fold change [1]: −5.2 fold
Mapkapk2 fold downregulation [1]: 5.1 fold
Mbl2 fold change [1]: 15.7 fold
Mef2c fold change [1]: −64.9 fold
Mmp3 fold downregulation [1]: 3.8 fold
Mmp9 fold change [1]: −8.2 fold
Mmp9 fold downregulation [1]: 8.2 fold
Mrc1 fold change [1]: −5.4 fold
Mx1 fold change [1]: 36.2 fold
Mx2 fold change [1]: 5.3 fold
Myc fold downregulation [1]: 3.3 fold
Myd88 fold downregulation [1]: 2.7 fold
Nf2el2 fold downregulation [1]: 3.5 fold
Nfatc3 fold change [1]: −4.1 fold
Nfatc3 fold downregulation [1]: 4.1 fold
Nfkb1 fold change [1]: −5.9 fold
Nfkb1 fold downregulation [1]: 5.9 fold
Nod2 fold change [1]: −5.1 fold
Nos2 fold change [1]: 6.1 fold
Nr3c1 fold change [1]: −4.9 fold
Oas1a fold change [1]: −4.3 fold
Pdgfa fold change [1]: −5.2 fold
Pdgfa fold downregulation [1]: 5.2 fold
Ppp1r12b fold change [1]: −12.1 fold
Ptgs1 fold downregulation [1]: 3.1 fold
Ptgs2 fold downregulation [1]: 1.7 fold
Rac1 fold change [1]: −7.3 fold
Rac1 fold downregulation [1]: 7.3 fold
Raf1 fold change [1]: −5.7 fold
Raf1 fold downregulation [1]: 5.7 fold
Rhoa fold change [1]: −5.9 fold
Shc1 fold change [1]: −7.4 fold
Stat1 fold downregulation [1]: 2.8 fold
Stat2 fold downregulation [1]: 2.5 fold
Stat3 fold change [1]: −7.4 fold
Stat3 fold downregulation [1]: 7.4 fold
Tcf4 fold change [1]: −4.4 fold
Tgfb1 fold change [1]: −13.3 fold
Tgfb1 fold downregulation [1]: 13.3 fold
Tgfb3 fold downregulation [1]: 2.7 fold
Tlr2 fold downregulation [1]: 2.4 fold
Tlr8 fold downregulation [1]: 3.4 fold
Tlr9 fold change [1]: 8.3 fold
Tnfsf14 fold change [1]: 4.8 fold
Trem2 fold change [1]: −4.5 fold
Tslp fold change [1]: 4.3 fold
Tyrobp fold change [1]: −4.9 fold
pathway score: immune response [2]: upregulated
pathway scores: activation of NFκB, innate immune response, chemokine activity, inflammatory response, angiogenesis [2]: downregulated
